Where a name gives a salt, the structure may show the parent alone.
System: Acinetobacter baumannii ATCC17961
Assay: Antimicrobial susceptibility testing: 90% growth inhibitory concentration (IC90) determination
Format: cell-based
Details: 90% growth inhibitory concentration against Acinetobacter baumannii ATCC17961, Iso-Sensitest broth, OD 600 nm over 16 h; read-out: ATCC 17961 IC90
Procedure: The in vitro antimicrobial activity of the compounds was determined according to the following procedure: The assay used a 10-points Iso-Sensitest broth medium to measure quantitatively the in vitro activity of the compounds against Acinetobacter baumannii ATCC17961. Stock compounds in DMSO were serially twofold diluted (e.g. range from 10 to 0.0195 μM final concentration) in 384 wells microtiter plates and inoculated with 49 μL the bacterial suspension in Iso-Sensitest medium to have a final cell concentration of ˜5×10^(5) CFU/mL in a final volume/well of 50 μL/well. Microtiter plates were incubated at 35±2° C. Bacterial cell growth was determined with the measurement of optical density at λ=600 nm each min over a time course of 16 h. Growth inhibition was calculated during the logarithmic growth of the bacterial cells with determination of the concentration inhibiting 50% (IC50) and 90% (IC90) of the growth. Table 1 provides the 90% growth inhibitory concentrations (IC90) in micromoles per liter of the compounds of present invention obtained against the strain Acinetobacter baumannii ATCC17961.

Row | SMILES | IC90 [µM]
1 | Cn1c(-c2cn(-c3ccc(N)cn3)nc2C(F)(F)F)cnc1C(=O)Nc1ccc(C(=O)N2CCN(C(=O)CCC[N+](CCCCN)(CCCCN)CC(=O)O)CC2)c(Cl)c1 [Example 20, bis(4-aminobutyl)-[4-[4-[4-[[5-[1-(5-amino-2-pyridyl)-3-(trifluoromethyl)pyrazol-4-yl]-1-methyl-imidazole-2-carbonyl]amino]-2-chloro-benzoyl]piperazino]-4-keto-butyl]-(carboxymethyl)ammonium. 1:1 2,2,2-trifluoroacetic acid. 1:1 2,2,2-trifluoroacetate] | 0.3

Same assay, conditions: Acinetobacter baumannii, ATCC17961, 16 h, 90% growth inhibitory concentration against Acinetobacter baumannii ATCC17961, Iso-Sensitest broth, OD 600 nm over 16 h; read-out: ATCC 17961 IC90

Row | SMILES | IC90 [µM]
2 | Cn1c(-c2cn(-c3ccc(NCCCN)cn3)nc2C(F)(F)F)cnc1C(=O)Nc1ccc(C(=O)N2CCN(C(=O)[C@H]3CC[N@+](CC(=O)O)(CC4CNC4)CC3)CC2)c(Cl)c1 [Example 15, cis-2-[4-[4-[4-[[5-[1-[5-(3-aminopropylamino)-2-pyridyl]-3-(trifluoromethyl)pyrazol-4-yl]-1-methyl-imidazole-2-carbonyl]amino]-2-chloro-benzoyl]piperazine-1-carbonyl]-1-(azetidin-3-ylmethyl)piperidin-1-ium-1-yl]acetic acid. 1:1 2,2,2-trifluoroacetic acid. 1:1 2,2,2-trifluoroacetate] | 0.21
3 | Cn1c(-c2cn(-c3ccc(N)cc3F)nc2C(F)(F)F)cnc1C(=O)Nc1ccc(C(=O)N2CCN(C(=O)[C@H]3CC[N@+](CC(=O)O)(CC4CNC4)CC3)CC2)c(Cl)c1 [Example 16, cis-2-[4-[4-[4-[[5-[1-(4-amino-2-fluoro-phenyl)-3-(trifluoromethyl)pyrazol-4-yl]-1-methyl-imidazole-2-carbonyl]amino]-2-chloro-benzoyl]piperazine-1-carbonyl]-1-(azetidin-3-ylmethyl)piperidin-1-ium-1-yl]acetic acid. 1:1 2,2,2-trifluoroacetate] | 0.21
4 | Cn1c(-c2cn(-c3ccc(N)cc3F)nc2C(F)(F)F)cnc1C(=O)Nc1ccc(C(=O)N2CCN(C(=O)C3CC[N+](CC(=O)O)(CC4CNC4)CC3)CC2)c(Cl)c1 (stereo not shown) [Example 17, 2-[4-[4-[4-[[5-[1-(4-amino-2-fluoro-phenyl)-3-(trifluoromethyl)pyrazol-4-yl]-1-methyl-imidazole-2-carbonyl]amino]-2-chloro-benzoyl]piperazine-1-carbonyl]-1-(azetidin-3-ylmethyl)piperidin-1-ium-1-yl]acetic acid. 1:1 2,2,2-trifluoroacetate] | 0.24
5 | Cn1c(-c2cn(-c3ccc4[nH]ccc4n3)nc2C(F)(F)F)cnc1C(=O)Nc1ccc(C(=O)N2CCN(C(=O)C3CC[N+](CC(=O)O)(CC4CNC4)CC3)CC2)c(Cl)c1 (stereo not shown) [Example 18, 2-[1-(azetidin-3-ylmethyl)-4-[4-[2-chloro-4-[[1-methyl-5-[1-(1H-pyrrolo[3,2-b]pyridin-5-yl)-3-(trifluoromethyl)pyrazol-4-yl]imidazole-2-carbonyl]amino]benzoyl]piperazine-1-carbonyl]piperidin-1-ium-1-yl]acetic acid. 1:1 formate] | 0.26
6 | C[C@H](N)CNc1ccc(-n2cc(-c3cnc(C(=O)Nc4ccc(C(=O)N5CCN(C(=O)C6CC[N+](CC(=O)O)(CC7CNC7)CC6)CC5)c(Cl)c4)n3C)c(C(F)(F)F)n2)nc1 (stereo partly drawn) [Example 19, 2-[4-[4-[4-[[5-[1-[5-[[(2S)-2-Aminopropyl]amino]-2-pyridyl]-3-(trifluoromethyl)pyrazol-4-yl]-1-methyl-imidazole-2-carbonyl]amino]-2-chloro-benzoyl]piperazine-1-carbonyl]-1-(azetidin-3-ylmethyl)piperidin-1-ium-1-yl]acetic Acid.1:1 formic Acid.1:1 formate] | 0.26
7 | Cn1c(-c2cn(-c3ccc(CN)cn3)nc2C(F)(F)F)cnc1C(=O)Nc1ccc(C(=O)N2CCN(C(=O)C3CC[N+](CC(=O)O)(CC4CNC4)CC3)CC2)c(Cl)c1 (stereo not shown) [Example 21, 2-[4-[4-[4-[[5-[1-[5-(Aminomethyl)-2-pyridyl]-3-(trifluoromethyl)pyrazol-4-yl]-1-methyl-imidazole-2-carbonyl]amino]-2-chloro-benzoyl]piperazine-1-carbonyl]-1-(azetidin-3-ylmethyl)piperidin-1-ium-1-yl]acetic Acid.1:1 formic Acid.1:1 formate] | 0.32
